Where two headings read alike, the source gives them in different places.
Experiments:
[1] = system: C57BL/6J; assay: Randomized controlled trial in mice, compounds in Lipoderm applied daily to right flank (Example 1); format: in vivo; settings: for Local increase in subcutaneous fat / asymmetry between flanks: following 24 days of therapy, right flank treated, left flank untreated
Description: The arms were as follows: vehicle (Lipoderm®), a thiazolidinedione (pioglitazone), harmine, an orexigenic compound (megestrol acetate), and efavirenz. Each compound was combined in the percutaneous Lipoderm® formulation at an equimolar concentration (5 mM). The Lipoderm® vehicle is adapted to deliver the respective compound percutaneously, i.e., across the skin and into subcutaneous fat. The formulations were applied daily to the right flank of each animal, whereas the left flank was used as an untreated control.
A randomized controlled trial was conducted on C57BL/6J. Male mice approximately six weeks old were prospectively randomized into groups and assigned to the following treatment conditions (n=5 animals per group):
Animals were shaved and depilated over the flanks at the start of the study.
Animals were kept in identical conditions and fed ab libitum with a standardized high-fat diet (70% kcal fat). Animals were weighed three times weekly. Following 24 consecutive days of treatment, mice were sacrificed and samples of skin and adjacent fat from the treated flanks are taken for histologic examination.

[2] = system: patient; assay: Clinical application for augmentation of the buttocks (Example 9); format: in vivo, human; settings: 10 mg/ml in Lipoderm daily, after 6 months; contemplated
Description: The following description exemplifies a clinical application of percutaneous administration of an orexigenic pregnane derivative for augmentation of the buttocks. A female or male patient wishes to undergo a buttocks augmentation procedure but is concerned about the risks of surgery. The physician prescribes a daily application of megestrol acetate (for example, 10 mg/ml in Lipoderm®) to the buttocks.

[3] = system: Gottingen minipigs; settings: for Increase over Placebo in subcutaneous fat thickness, MEAN: mean of 24 sites, 42 days
Description: (§1) A prospective controlled trial was performed in 4 Gottingen minipigs (2 males, 2 females). Hair on the back was clipped. […] An equivalent Vehicle Treatment Area was marked on the left side of the animal, such that the two treatment areas were anatomically equivalent. […] After 42 days of treatment, plasma pharmacokinetics (PK) was assessed on all animals by Liquid Chromatography/Tandem Mass Spectrometry. Necropsy was done and samples of skin, subcutaneous fat, and muscle were collected en bloc from each treatment area in a controlled fashion. […] Table 5 presents the thicknesses of subcutaneous fat on each of six treated and control (vehicle) locations, by animal. […] Table 6 compares plasma PK following percutaneous administration (present study) with plasma PK following oral administration in humans.

[4] = Plasma pharmacokinetics after percutaneous administration in minipigs (Example 4); settings: percutaneous versus oral
Description: as §1

O=C1Nc2ccc(Cl)cc2[C@@](C#CC2CC2)(C(F)(F)F)O1 [Efavirenz]
Local increase in subcutaneous fat / asymmetry between flanks [1]: did not exhibit any increase in fat or asymmetry between the two flanks

CC(=O)O[C@]1(C(C)=O)CC[C@H]2[C@@H]3C=C(C)C4=CC(=O)CC[C@]4(C)[C@H]3CC[C@@]21C [Megestrol acetate]
Relative skin fold thickness of left and right flanks ([1]; examined on Day 24): asymmetric, with thicker skin folds on the treated flanks compared to the untreated flanks
Local increase in subcutaneous fat / asymmetry between flanks [1]: exhibited local increases in subcutaneous fat
Thickness of skin fold, right (treated) flank ([1]; representative mouse, 24 days of treatment, left (untreated) flank about 2 mm): about 4 mm
Buttocks size, clinical appearance [2]: the buttocks appear clinically larger

CN(CCOc1ccc(CC2SC(=O)NC2=O)cc1)c1ccccn1 (centres unmarked) [Rosiglitazone]
Increase over Placebo in subcutaneous fat thickness, MEAN [3]: 48%
Increase over Placebo in subcutaneous fat thickness, MEAN ([3]; listed as rosiglitazone): 48%
Tolerability ([3]; minipig, in vivo): well tolerated, with no evidence of skin irritation or other clinical observations
Peak plasma concentration, lower than for oral (systemic) therapy [4]: about 3400 fold
Plasma exposure, lower than for oral (systemic) therapy [4]: ~1300 fold

COc1ccc2c(c1)[nH]c1c(C)nccc12 [Harmine]
Local increase in subcutaneous fat / asymmetry between flanks [1]: did not exhibit any increase in fat or asymmetry between the two flanks

Reference: US8883834B2, “Methods and compositions for locally increasing body fat” (Topokine Therapeutics, Inc., priority 2012, dated 2014)
